Source: BindingDB's records for doi:10.1021/jm801583j (Bristol-Myers Squibb, 2009)

Target: T1, Androgen receptor (Homo sapiens, UniProt P10275)
T1 sequence (P10275 whole entry): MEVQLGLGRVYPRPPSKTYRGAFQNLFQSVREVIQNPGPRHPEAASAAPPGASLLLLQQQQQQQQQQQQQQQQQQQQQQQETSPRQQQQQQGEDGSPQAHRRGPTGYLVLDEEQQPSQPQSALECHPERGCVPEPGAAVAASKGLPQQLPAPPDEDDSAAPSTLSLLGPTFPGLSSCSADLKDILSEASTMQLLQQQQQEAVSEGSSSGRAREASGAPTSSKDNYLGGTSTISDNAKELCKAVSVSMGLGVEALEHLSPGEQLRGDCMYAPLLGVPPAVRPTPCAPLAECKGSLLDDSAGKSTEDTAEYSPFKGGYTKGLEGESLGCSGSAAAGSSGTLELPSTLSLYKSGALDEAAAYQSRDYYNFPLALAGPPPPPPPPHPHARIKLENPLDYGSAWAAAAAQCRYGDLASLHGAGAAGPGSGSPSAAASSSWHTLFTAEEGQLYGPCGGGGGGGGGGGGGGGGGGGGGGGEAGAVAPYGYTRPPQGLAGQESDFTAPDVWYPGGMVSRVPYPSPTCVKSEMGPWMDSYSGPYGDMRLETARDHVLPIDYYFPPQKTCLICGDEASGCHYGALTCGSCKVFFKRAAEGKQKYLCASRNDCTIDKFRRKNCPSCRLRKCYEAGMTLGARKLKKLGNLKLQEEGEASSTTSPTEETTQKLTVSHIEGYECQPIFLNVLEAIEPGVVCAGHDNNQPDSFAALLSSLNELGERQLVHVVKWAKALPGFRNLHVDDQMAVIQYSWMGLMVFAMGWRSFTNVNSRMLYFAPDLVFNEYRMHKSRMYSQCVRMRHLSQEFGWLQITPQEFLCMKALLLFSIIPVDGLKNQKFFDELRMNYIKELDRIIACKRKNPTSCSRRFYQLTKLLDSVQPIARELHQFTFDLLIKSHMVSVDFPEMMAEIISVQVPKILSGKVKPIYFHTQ
Experiment: Receptor Binding Assay (Ki) and Transactivation Assay (EC50)
Settings: pH 7.6; 22 °C
Method: Binding assays were conducted by incubating test compound at various concentrations with [3H]DHT with human cancer epithelial breast cell lines MDAMB-45. IC50 value was obtained from dose-response displacement curves. The inhibition constant (Ki) was calculated from IC50 value by the Cheng and Prusoff equation. EC50 value was obtained from functional transactivation assay, which was conducted to assess the potency and efficacy of agonist/antagonist in stably transfected mouse myoblast C2C12 cell line utilizing a luciferase reporter.

| SMILES | EC50 | Ki |
| --- | --- | --- |
| Cc1c(N2/C(=N/C#N)N3CC[C@H](O)[C@H]3[C@@H]2C)ccc(C#N)c1Cl [cyanoguanidine, 15] | 1110 nM | 17 nM |
| Cc1c(/N=C2\O[C@H](C(C)C)[C@@H]3[C@H](O)CCN23)ccc(C#N)c1Cl [oxazolidin-2-imine, 6g] | 3.7 nM | 0.7 nM |
